# Assay results taken from patent EP4631957A1, “PEPTIDE FOR CARTILAGE REGENERATION, AND USES THEREOF” (Caregen Co., Ltd., priority 2022, dated 2024).
# Where a SMILES comes first, the peptide text is derived from it. Where no end group is shown, it is not given here.
# Test system: C28/I2 cells
# Experiment: CCK-8 cytotoxicity assay in human-derived chondrocytes
# Format: cell-based
# Details: peptide at different concentrations, 3 days, read at 450 nm, FIG. 1 and FIG. 2
# Procedure: The cytotoxicity of Peptide-1 or Peptide-2 upon addition to human-derived chondrocytes (C28/I2, human chondrocyte cell line) was analyzed using a CCK-8 assay.
# Specifically, human-derived chondrocytes were seeded in a 96-well plate at a density of 3 × 10^3 cells/well and cultured in DMEM medium (cat. 11995-065, Gibco) for 24 hours. […] Meanwhile, as a negative control group (CON), an experimental group to which the peptide was not added was used.
row,Molecule,toxicity in human-derived chondrocytes (CCK-8 activity)
1,"N=C(N)NCCC[C@H](N)C(=O)N[C@@H](Cc1ccc(O)cc1)C(=O)N[C@@H](Cc1ccccc1)C(=O)O [Peptide-1, Arg(R)-Tyr(Y)-Phe(F)] (H-Arg-Tyr-Phe-OH)",did not exhibit toxicity
2,TAVRVG [Peptide-2],did not exhibit toxicity
